In patent US8394630B2, “Producing a mammalian pluripotent cell population from mammalian blastomere-like stem cells (BLSCs)” (StemBios Technologies, Inc., priority 2009, dated 2013):

Test system: BLSCs
Assay: Culturing BLSCs in medium containing RA or TGF-β to produce SBR and SBT cells
Assay type: cell-based, human
Conditions: StemBios-003 medium, 0.1 to 20 μM RA or 1 to 40 nM TGF-β, over 2-6 weeks
Method: The method for activation, purification, and expansion of BLSCs has been described in WO/2007/100845. In this example, BLSCs were purified from blood of a human subject using two methods. The isolated cells were analyzed by flow cytometry.
The purified BLSCs were cultured in StemBios-001. To produce SBR and SBT cells, BLSCs were cultured in a StemBios-002 medium for 2 weeks. Then, the BLSCs were cultured in a StemBios-003 medium containing 0.1 to 20 μM of RA or 1 to 40 nM of TGF-β for over 2˜6 weeks. […] These cells were named SBR and SBT cells respectively.

For TGF-β, the “change of morphology and sizes of cultured BLSCs” value was “gradually changed their morphology and sizes”.
